Values quoted from earlier work, collected in patent publication US11419915B2, “Compositions and methods for the treatment of malnutrition” (VitalneXt B.V., priority 2015, dated 2022).

Conditions: dose of 80 mg/kg bodyweight ursolic acid from an ethanolic extract of Sambucus chinensis; rat plasma

For `C[C@H]1[C@H](C)CC[C@]2(C(=O)O)CC[C@]3(C)C(=CC[C@@H]4[C@@]5(C)CC[C@H](O)C(C)(C)[C@@H]5CC[C@]43C)[C@H]12` [ursolic acid, 3-beta-3-hydroxy-urs-12-ene-28-oic-acid], the oral bioavailability is given as 0.6%.
